Results taken from patent US6653300B2, “Pyrazole compounds useful as protein kinase inhibitors” (Vertex Pharmaceuticals Incorporated, priority 2000, dated 2003).

What was measured:
GSK-3β (AA 1-420) = target: T1, GSK-3β (AA 1-420) (Homo sapiens, UniProt P49841); assay: Ki determination for the inhibition of GSK-3 (coupled enzyme system); assay type: biochemical; conditions: 20 μM ATP, 20 nM GSK-3β, 30° C.
T1 construct: GSK-3β (AA 1-420)
Description: Compounds were screened for their ability to inhibit GSK-3β (AA 1-420) activity using a standard coupled enzyme system (Fox et al. (1998) Protein Sci. 7, 2249). Reactions were carried out in a solution containing 100 mM HEPES (pH 7.5), 10 mM MgCl2, 25 mM NaCl, 300 μM NADH, 1 mM DTT and 1.5% DMSO. Final substrate concentrations in the assay were 20 μM ATP (Sigma Chemicals, St Louis, Mo.) and 300 μM peptide (HSSPHQS (PO3H2) EDEEE, American Peptide, Sunnyvale, Calif.). Reactions were carried out at 30° C. and 20 nM GSK-3β. Final concentrations of the components of the coupled enzyme system were 2.5 mM phosphoenolpyruvate, 300 μM NADH, 30 μg/ml pyruvate kinase and 10 μg/ml lactate dehydrogenase.
An assay stock buffer solution was prepared containing all of the reagents listed above with the exception of ATP and the test compound of interest. The assay stock buffer solution (175 μl) was incubated in a 96 well plate with 5 μl of the test compound of interest at final concentrations spanning 0.002 μM to 30 μM at 30° C. for 10 min. […] The reaction was initiated by the addition of 20 μl of ATP (final concentration 20 μM). Rates of reaction were obtained using a Molecular Devices Spectramax plate reader (Sunnyvale, Calif.) over 10 min at 30° C. The Ki values were determined from the rate data as a function of inhibitor concentration.

T1 sequence (P49841 whole entry, the tested form may be a part): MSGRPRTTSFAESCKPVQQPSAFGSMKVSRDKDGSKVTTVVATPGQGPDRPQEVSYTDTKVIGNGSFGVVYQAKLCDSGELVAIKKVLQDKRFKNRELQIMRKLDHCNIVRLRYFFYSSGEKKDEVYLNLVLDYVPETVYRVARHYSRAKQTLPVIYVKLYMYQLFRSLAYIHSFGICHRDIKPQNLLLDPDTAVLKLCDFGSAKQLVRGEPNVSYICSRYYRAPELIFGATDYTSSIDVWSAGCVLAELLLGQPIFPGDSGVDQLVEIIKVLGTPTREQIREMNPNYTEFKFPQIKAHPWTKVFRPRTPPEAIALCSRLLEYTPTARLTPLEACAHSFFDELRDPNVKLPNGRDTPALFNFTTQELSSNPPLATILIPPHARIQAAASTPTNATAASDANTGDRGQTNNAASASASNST

SMILES	Ki (GSK-3β (AA 1-420)) [nM]	melting point [°C]
COC(=O)c1cccc(Sc2nc(Nc3cc(C4CC4)[nH]n3)cc(-c3ccccc3)n2)c1 [IIIa-2, (5-Cyclopropyl-2H-pyrazol-3-yl)-[2-(3-methoxycarbonyl-phenylylsulfanyl)-6-phenylpyrimidin-4-yl]-amine]	< 100	126 to 129
c1ccc2cc(Sc3nccc(Nc4cc(C5CC5)[nH]n4)n3)ccc2c1 [IIIa-3, (5-Cyclopropyl-2H-pyrazol-3-yl)-[2-(naphthalen-2-ylsulfanyl)-pyrimidin-4-yl]-amine]	< 100	248 to 250
Cc1nc(Sc2ccc3ccccc3c2)nc(Nc2cc(C3CC3)[nH]n2)c1C [IIIa-4, (5-Cyclopropyl-2H-pyrazol-3-yl)-[5,6-dimethyl-2-(naphthalen-2-ylsulfanyl)-pyrimidin-4-yl]-amine]	100 to 1000	> 270
Cc1cnc(Sc2ccc3ccccc3c2)nc1Nc1cc(C2CC2)[nH]n1 [IIIa-5, (5-Cyclopropyl-2H-pyrazol-3-yl)-[5-methyl-2-(naphthalen-2-ylsulfanyl)-pyrimidin-4-yl]-amine]	100 to 1000	197
Cc1cc(Nc2cc(C3CC3)[nH]n2)nc(Sc2ccc3ccccc3c2)n1 [IIIa-6, (5-Cyclopropyl-2H-pyrazol-3-yl)-[6-methyl-2-(naphthalen-2-ylsulfanyl)-pyrimidin-4-yl]-amine]	< 100	232
c1ccc2cc(Sc3nc(Nc4cc(C5CC5)[nH]n4)cc(N4CCOCC4)n3)ccc2c1 [IIIa-7, (5-Cyclopropyl-2H-pyrazol-3-yl)-[6-(morpholin-4-yl)-2-(naphthalen-2-ylsulfanyl)-pyrimidin-4-yl]-amine]	100 to 1000	118 to 120
COCc1cc(Nc2cc(C)[nH]n2)nc(Sc2ccc(C(=O)OC)cc2)n1 [IIIa-39, [2-(4-Methoxycarbonyl-phenyl-sulfanyl)-6-methoxymethyl-pyrimidin-4-yl]-(5-methyl-2H-pyrazol-3-yl)-amine]	–	204 to 205
c1ccc(Nc2nc(Nc3cc(C4CC4)[nH]n3)cc(-c3ccccc3)n2)cc1 [IIIc-2, (5-Cyclopropyl-2H-pyrazol-3-yl)-(6-phenyl-2-phenylamino-pyrimidin-4-yl)-amine]	–	267 to 269
Cc1cccc(Nc2nc(Nc3cc(C4CC4)[nH]n3)cc(-c3ccccc3)n2)c1 [IIIc-3, (5-Cyclopropyl-2H-pyrazol-3-yl)-[2-(3-methylphenylamino)-6-phenyl-pyrimidin-4-yl]-amine]	–	267 to 270
c1ccc(-c2cc(Nc3cc(C4CC4)[nH]n3)nc(NCc3cccnc3)n2)cc1 [IIIc-5, (5-Cyclopropyl-2H-pyrazol-3-yl)-[6-phenyl-2-(pyridin-3-ylmethylamino)-pyrimidin-4-yl]-amine]	–	191 to 193
Cc1cc(Nc2nc(Sc3nc4ccccc4[nH]3)nc3ccccc23)n[nH]1 [IIa-19, [2-(Benzimidazol-2-ylsulfanyl)-quinazolin-4-yl]-(5-methyl-2H-pyrazol-3-yl)-amine]	–	192 to 196
c1ccc2c(Sc3nc(Nc4cc(C5CC5)n[nH]4)c4ccccc4n3)cccc2c1 [IIa-37, (5-Cyclopropyl-2H-pyrazol-3-yl)-[2-(naphthalen-1-ylsulfanyl)-quinazolin-4-yl]-amine]	–	271 to 273
CC(=O)Nc1ccc(Sc2nc(Nc3cc(C)n[nH]3)c3cccc(F)c3n2)cc1 [IIa-78, [2-(4-Acetamidophenylsulfanyl)-8-fluoro-quinazolin-4-yl]-(5-methyl-2H-pyrazol-3-yl)-amine]	–	257 to 259
Cc1cc(Nc2nc(N(CCO)c3ccccc3)nc3ccccc23)n[nH]1 [IIc-1, {2-[(2-Hydroxyethyl)phenylamino]-quinazolin-4-yl}-(5-methyl-2H-pyrazol-3-yl)-amine]	–	217
Cc1cc(Nc2nc(Nc3ccc4cn[nH]c4c3)nc3ccccc23)n[nH]1 [IIc-9, [2-(1H-Indazol-6-ylamino)-quinazolin-4-yl]-(5-methyl-2H-pyrazol-3-yl)-amine]	–	> 250
